Entries after “also recorded” stand apart in the source; their conditions may differ. Bounds are passed on as bounds.

A short description of data set [1]: SRB assay, toxicity in non-tumor PLP2 cells. The data set is classed as cell-based, pig. The settings on record: PLP2 primary pig liver cells (non-tumor); non-tumor primary pig liver cells, SRB assay, 72 h, mean ± standard deviation. As for the experimental part: (§1) The antitumor potential of the Sonogashira coupling products 2, tricyclic lactones 3 and 5, and tetracyclic lactones 7 was evaluated using the sulforhodamine B (SRB) assay against five human tumor cell lines: colorectal adenocarcinoma (CaCo-2), breast adenocarcinoma (MCF-7), gastric adenocarcinoma (AGS), cervical carcinoma (HeLa), and non-small cell lung cancer (NCI-H460). A primary pig liver cell culture (PLP2) was used to assess the toxicity of compounds.
(§2) The human tumor cell lines used were CaCo-2 (colorectal adenocarcinoma), MCF-7 (breast adenocarcinoma), AGS (gastric adenocarcinoma), HeLa (cervical carcinoma), NCI-H460 (lung carcinoma). Non-tumor cell lines were also tested: PLP2 (primary pig liver culture). All the cell lines were maintained in RPMI-1640 medium supplemented with 10% fetal bovine serum, glutamine (2 mM), penicillin (100 U/mL), and streptomycin ([…]), with the exception of PLP2, which was maintained in DMEM medium supplemented with fetal bovine serum (10%), glutamine and antibiotics. The culture flasks were incubated at 37 °C and with 5% CO2, under a humid atmosphere. The cells were used only when they had 70 to 80% confluence. A known mass of each compound was dissolved in DMSO/H2O (1:1, 1 mL), in order to obtain the stock solutions with a concentration of 1 mM. […] Each compound concentration (10 μL) was incubated with the cell suspension (190 μL) of the cell lines tested in 96-well microplates for 72 h. The microplates were incubated at 37 °C and with 5% CO2 in a humid atmosphere after checking the adherence of the cells. All cell lines were tested at a concentration of 10,000 cells/well. After the incubation period, the cells were treated: TCA (10% w/v; 100 μL) was previously cooled, and plates were incubated for 1 h at 4 °C, washed with water, and, after drying, a SRB solution (0.057%, m/v; 100 μL) was added and left to stand at room temperature for 30 min. To remove non-adhered SRB, plates were washed three times with a solution of acetic acid (1% v/v) and placed to dry. Finally, an adhered SRB was solubilized with Tris (10 mM, 200 μL) and the absorbance at a wavelength of 540 nm was read in the Biotek ELX800 microplate reader. The results obtained by the SRB assay were expressed regarding the concentration compounds that can inhibit cell growth by 50%—GI50. Doxorubicin was used as a positive control.
(In general: The SRB assay estimates cell density from bound dye.)

For data set [2], the system named is AGS (gastric adenocarcinoma) cells. Briefly: SRB cell growth inhibition assay, AGS. The data set is classed as cell-based. The settings on record: Homo sapiens, 72 h, mean ± standard deviation. The protocol:
as §1, §2

Data set [3] can be described thus: MTT cytotoxicity in THP-1-derived macrophages. The data set is classed as cell-based, human. The conditions noted are these: human, THP-1-derived macrophages (PMA-differentiated); MTT, 72 h, tested 100 to 12.5 μM; read-out: CC50 Interval in THP-1-Derived Macrophages. The protocol: (§3) Human leukemia cell line, THP-1 (ATCC® TIB-202™, Manassas, VA, USA) was cultured in RPMI-1640 medium supplemented with 10% heat-inactivated Fetal Bovine Serum (FBS), 2 mM L-glutamine, 100 UI/mL penicillin/streptomycin, 20 mM HEPES. The cell line was maintained in a humidified incubator at 37 °C and 5% CO2 by subculture every three days in 20 mL of media at a concentration of 1 × 10^5/mL in a T75 flask. All cell culture reagents were purchased from Lonza-Bioscience (Morrisville, NC, USA).
(§4) The cytotoxicity effect of compounds on THP-1-derived macrophages was assessed by the colorimetric MTT assay (3-(4,5-dimethylthiazol-2-yl)-2,5-diphenyl tetrazolium bromide). Briefly, THP-1 cells were suspended in RPMI complete medium at a density of 1 × 10^6 cells/mL and 100 μL/well were seeded in a 96-well plate and were differentiated into macrophages by addition of 40 ng/mL of phorbol-myristate 13-acetate (PMA, Sigma, Saint Louis, MI, USA) for 24 h followed by replacement with fresh medium for more 24 h. Subsequently, cells were incubated with 100 μL of compounds ranging from 100 to 12.5 μM after dilution in the RPMI complete medium. Each condition was carried out in quadruplicate. After 72 h of incubation at 37 °C 5% CO2, the medium was removed and 200 μL of 0.5 mg/mL MTT solution diluted in RPMI was added. Plates were incubated for an additional 4 h. Then 160 μL of media was removed and the same volume of 2-propanol was added. Absorbance was read at 570 nm using a Synergy 2 Multi-Mode Reader (Biotek, Winooski, VT, USA). Cytotoxicity was evaluated by the determination of the CC50 value (drug concentration that reduced the percentage of viable cells in 50%) and calculated by non-linear regression analysis using GraphPad Prism version 8.1.1 for Windows (GraphPad Software, San Diego, CA, USA). The results represent the average of at least three independent experiments. For each compound, the Selectivity Index (SI) was calculated as the ratio between cytotoxicity in THP-1 (CC50, 72 h) and activity against parasites (IC50, 72 h).

Data set [4] has as its system MCF-7 (breast adenocarcinoma) cells. Briefly: SRB cell growth inhibition assay, MCF-7. The data set is classed as cell-based, human. The settings on record: Homo sapiens, MCF7, 72 h, mean ± standard deviation. As for the experimental part:
as §1, §2

Data set [5] deals with CaCo-2 (colorectal adenocarcinoma) cells. Description: SRB cell growth inhibition assay, CaCo-2. The data set is classed as cell-based, human. The conditions noted are these: Homo sapiens, Caco-2, 72 h, mean ± standard deviation. The protocol:
as §1, §2

The subject of data set [6] is NCI-H460 (non-small cell lung cancer) cells. Briefly: SRB cell growth inhibition assay, NCI-H460. The data set is classed as cell-based. The settings on record: Homo sapiens, 72 h, mean ± standard deviation. The protocol: as §1, §2
Data set [7] concerns HeLa (cervical carcinoma) cells. Description: SRB cell growth inhibition assay, HeLa. The data set is classed as cell-based. The settings on record: Homo sapiens, 72 h, mean ± standard deviation. The protocol:
as §1, §2

Data set [8] has as its system L. infantum MHOM/MA/67/ITMAP-263 promastigotes. Briefly: Resazurin-based assay against L. infantum promastigotes. The data set is classed as cell-based, Leishmania infantum. The conditions noted are these: single dose 20 μM, 72 h, no activity = less than 20%. As for the experimental part:
(§5) The antiparasitic activity of compounds 2c–g, 3a, 5a and 7 was evaluated at a single concentration of 20 μM, against Trypanosoma brucei (T. brucei) and Leishmania infantum (L. infantum) promastigotes. The results are shown in Table 9 together with the cytotoxicity data (CC50) in THP-1–derived macrophages cells.
L. infantum MHOM/MA/67/ITMAP-263 promastigotes forms were grown at 27 °C, in complete RPMI-1640 medium supplemented with 10% heat-inactivated Fetal Bovine Serum (FBS), 2 mM L-glutamine, 100 UI/mL penicillin/streptomycin, 20 mM HEPES. Parasites maintenance was performed in T25 non-ventilated flasks by subpassage at a concentration of 1 × 10^6/mL every 5 days on T25 non-ventilated flasks.
The compounds’ efficacy against L. infantum promastigotes was evaluated using a resazurin-based assay. Parasites were added to 100 µL of serial dilutions of compounds in supplemented complete medium at a cell density of 5 × 10^5/mL. As a quality control, a dose–response curve to the antileishmanial drug miltefosine was included in all the assays. The final volume of the assay was 200 µL/well. Each condition was carried out in duplicate. Following 72 h of incubation at the specific conditions for L. infantum, 20 µL of a 0.5 mM resazurin solution was added, and the plates were incubated for a further 4 h under the same conditions. The methodology to obtain the results was the same described in Section 3.2.2. for T. brucei.

In data set [9] the test system is T. brucei Lister 427 bloodstream forms. Description: Resazurin-based anti-T. brucei assay. The data set is classed as cell-based, Trypanosoma brucei. The settings on record: 72 h. The protocol: as §5
T. brucei Lister 427 bloodstream forms were grown in a humidified incubator at 37 °C, 5% CO2 in complete HMI-9 medium 1 supplemented with 10% heat-inactivated Fetal Bovine Serum (FBS) and 100 UI/mL penicillin/streptomycin. Parasites maintenance was performed in T25 ventilated flasks by subpassage at a concentration of 1 × 10^4/mL every 2 days on T25 ventilated flasks.
The efficacy of compounds against T. brucei bloodstream forms was evaluated using a modified resazurin-based assay previously described in the literature. Parasites were added to 100 µL of serial dilutions of compounds in supplemented complete medium at a cell density of 5 × 10^3/mL for. As a quality control, a dose–response curve for the antitrypanosomal pentamidine was included in all the assays. The final volume of the assay is 200 µL/well. Each condition was carried out in duplicate. Following 72 h incubation at the specific conditions for T. brucei, 20 µL of a 0.5 mM resazurin solution was added and plates were incubated for a further 4 h under the same conditions. Fluorescence was measured at 544 nm and 590 nm excitation and emission wavelength, respectively, using a Synergy 2 Multi-Mode Reader (Biotek, Winooski, VT, USA). Results were shown as % of parasite growth inhibition compared to control (untreated parasites) and represent the average of at least three independent experiments. The effect was evaluated by the determination of the IC50 value (concentration required to inhibit growth in 50%) and calculated by non-linear regression curves using GraphPad Prism version 8.1.1 for Windows (GraphPad Software, San Diego CA, USA).
A general note: Alamar Blue is a resazurin reagent that responds to reducing activity.

For data set [10], the system named is THP-1-derived macrophages. Description: MTT cytotoxicity in THP-1-derived macrophages. The data set is classed as cell-based, human. The protocol: as §3, §4

As for `COC(=O)c1sc2nccnc2c1C#Cc1ccsc1` [Compound 2g, Methyl 7-(thiophen-3-ylethynyl)thieno[2,3-b]pyrazine-6-carboxylate], halving of growth in [1] (GI50 at 72 h) required 90.5 ± 6.47 µM. The GI50 (usually the concentration at which growth is held to half of that of the control) in [2] turned out to be 46.1 ± 1.77 µM; in data set [4] it was 60 ± 3.19 µM; in data set [5], 30.7 ± 2.35 µM; in [6] it was 62.1 ± 3.05 µM; in data set [7], 36.4 ± 2.85 µM. For the same compound, the CC50 (usually the concentration at which the toxic effect on the cells reaches its halfway point) at 72 h in [3] is above 100 µM. For the same compound, in data set [8], the “L. infantum % of Activity ± ST.DEV (Single Dose 20 μM)” value is “no activity *”. The “T. brucei % of Activity ± ST.DEV (Single Dose 20 μM)” value in data set [9] (single dose 20 μM, no activity = less than 20%) was “no activity *”.

In the case of `O=c1oc(-c2ccccc2)c(Cl)c2c1sc1nccnc12` [Compound 5a, 9-Chloro-8-phenyl-6H-pyrano[4′,3′:4,5]thieno[2,3-b]pyrazin-6-one], growth in data set [1] was halved (GI50 at 72 h) at 66.8 ± 3.58 µM. The 50% growth inhibitory concentration (GI50) came to 36.3 ± 1.47 µM in [2]; 52.6 ± 3.18 µM in data set [4]; 41.7 ± 1.02 µM in data set [5]; 51.5 ± 4.18 µM in data set [6]; 35.8 ± 2.08 µM in [7]. In data set [10], the “cytotoxicity in THP-1-derived macrophages (in words)” value is given as “some level of toxicity; also recorded: some degree of cytotoxicity”. In addition, the 50% cytotoxic concentration (CC50) at 72 h in [3] is 50 to 100 µM. Besides, the IC50 (in general, the concentration needed to halve the response being measured) in [9] (dose-response) is 10.8 µM; in data set [9] (Trypanosoma brucei, dose-response), below 11 µM. Also, the “T. brucei IC50” value in data set [9] (dose-response) is “low μM range”.

The values above are taken from PMC12073635, “Synthesis of Tricyclic and Tetracyclic Lactone Derivatives of Thieno[2,3-b]pyrazine or Thieno[2,3-b]quinoline: Preliminary Antitumor and Antiparasitic Activity Evaluation” (Molecules, 2025).
